The values that follow come from patent US5250305A, “Process for enzymatic ultrafiltration of deamidated protein” (The United States of America as represented by the …, priority 1990, dated 1993).

Structures are written as SMILES. Peptide text beside a SMILES is read from it.

As usually defined, the Km is the concentration of substrate that gives half-maximal velocity. One may read the Vmax as the rate approached at saturating substrate.

In the test the test system is PGase. The experiment in a line: Km and Vmax of PGase substrates (Lineweaver-Burk plot). The test is classed as biochemical, Bacillus circulans. The settings on record: 0.05 M phosphate buffer, pH 7.0, 30° C. As for the experimental part: A 1 mL enzyme preparation containing 0.25-0.50 mg protein was added to 2-5 mL substrate in 0.05 M phosphate buffer, pH 7.0. The substrate concentrations were 0.2% CBZ-L-Gln, 0.2% BOC-Gln-Pro and 0.2% peptone type IV. Peptone solutions (5%) were ultrafiltered prior to use, through the 30 kd spiral membrane incubated at 30° C. for 30 or 60 min, then the ammonia constant of the samples was determined with a model 95-10 ammonia electrode (Orion Research Inc., Cambridge, Mass.).
The effects of the molarity and pH of the sodium phosphate buffer on PGase activity were studied. The progress of the PGase deamidation reaction of Peptone IV in 0.05 M phosphate buffer, pH 7.0, as a function of time was measured at 25° C. and 30° C.

In the case of `CC(C)(C)OC(=O)N[C@@H](CCC(N)=O)C(=O)N1CCC[C@H]1C(=O)O` [BOC-glutamine-proline, t-BOC-L-glutaminyl-L-proline] (HELM PEPTIDE1{[CC(C)(C)OC(=O)[*:2]].Q.P}$$$$V2.0), the Km was found to be 143 µM and the Vmax was found to be 0.52 µmol/min/mg.

On to `NC(=O)CC[C@H](NC(=O)OCc1ccccc1)C(=O)O` [CBZ-glutamine, CBZ-L-glutamine], for which the Michaelis-Menten constant (Km) is 67 µM.
